{"source": "patent US12351556B2", "about": "“Pyridin-2(1H)one derivatives, their preparation and their use for the treatment of pain” (INSTITUT NATIONAL DE LA SANTE ET DE LA RECHERCHE MEDICALE …, priority 2019, dated 2025)", "key": {"CK2": {"system": "CK2", "test": "ICKP protein kinase panel screening", "assay_type": "biochemical, human", "details": "10 μM, duplicate assays", "procedure": "(§1) FIG. 3 illustrates the human kinome. Compound 69 was evaluated at the International Center For Kinase Profiling (ICKP, Dundee, Scotland) toward a panel of 50 protein kinases that provide a representative sampling of the human kinome. The results were expressed as the mean percentage of residual activity at 10 μM concentration (duplicate assays). Small disks: ≥65%, larger disk: 19%. The black square indicates the kinome region containing protein kinases evaluated in a second screening (FIG. 4, Table 4). The tree was generated using the Kinome Render software, and the illustration reproduced courtesy of Cell Signaling Technology, Inc. (www.cellsignal.com) Chartier et al PeerJ 2013, 1:e126.\n(§2) Results are expressed as the mean percentage of residual activity at 10 μM (Table 3) or 1 μM (Table 4). They are illustrated on FIGS. 3 and 4.\n(§3) Studies were undertaken to identify the possible biological target(s) of compound 69. The activation in neurons of PK such as PKCγ, ERK or p38 MAPK can contribute to pain hypersensitivity. Therefore, it was decided to screen compound 69 toward a panel of 50 PKs that provide a representative sampling of the human kinome (FIG. 3, Table 3) (Biochem. J. 2007, 408, 297-315). In this panel, p38α MAPK was identified as the privileged target, with 19% of kinase residual activity at 10 μM compound concentration."}, "ROCK 2": {"system": "ROCK 2", "test": "ICKP protein kinase panel screening", "assay_type": "biochemical, human", "details": "10 μM, duplicate assays", "procedure": "as §1, §2, §3"}, "AMPK (hum)": {"system": "AMPK (hum)", "test": "ICKP protein kinase panel screening", "assay_type": "biochemical, human", "details": "10 μM, duplicate assays", "procedure": "as §1, §2, §3"}, "p38α MAPK": {"biological_target": "p38α MAPK (Homo sapiens (Human), UniProt Q16539)", "sequence (Q16539 whole entry, canonical isoform)": "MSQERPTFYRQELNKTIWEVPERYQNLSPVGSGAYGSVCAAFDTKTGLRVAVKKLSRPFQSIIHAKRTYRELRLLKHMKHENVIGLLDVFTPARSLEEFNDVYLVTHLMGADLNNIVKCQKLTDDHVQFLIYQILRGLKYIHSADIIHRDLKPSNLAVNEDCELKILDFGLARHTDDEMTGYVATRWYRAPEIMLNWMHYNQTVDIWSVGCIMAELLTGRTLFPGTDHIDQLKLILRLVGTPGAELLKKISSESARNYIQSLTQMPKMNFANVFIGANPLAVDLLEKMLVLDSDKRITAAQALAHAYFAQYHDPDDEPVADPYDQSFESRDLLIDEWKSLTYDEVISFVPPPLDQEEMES", "test": "p38 alpha IC50", "assay_type": "biochemical", "procedure": "as §3\n(§4) The selectivity of compound 69 was evaluated at 1 μM toward another panel containing all four p38 MAPK isoforms, ERK1, ERK2 as well as other protein kinases close to p38α MAPK in the kinome phylogenetic tree (FIG. 4, Table 4). […] Its IC50 toward p38α MAPK was determined, showing a value in the micromolar range (IC50=3.0±0.1 μM)."}, "TBK1": {"biological_target": "TBK1 (Homo sapiens (Human), UniProt Q9UHD2)", "test": "ICKP protein kinase panel screening", "assay_type": "biochemical", "details": "duplicate assays, read-out: mean % residual activity", "procedure": "as §1, §2, §3"}, "EPH-A2": {"biological_target": "EPH-A2 (Homo sapiens (Human), UniProt P29317)", "test": "ICKP protein kinase panel screening", "assay_type": "biochemical", "details": "duplicate assays, read-out: mean % residual activity", "procedure": "as §1, §2, §3"}, "PKCa": {"biological_target": "PKCa (Homo sapiens (Human), UniProt P17252)", "test": "ICKP protein kinase panel screening", "assay_type": "biochemical", "details": "duplicate assays, read-out: mean % residual activity", "procedure": "as §1, §2, §3"}, "PRK2": {"biological_target": "PRK2 (Homo sapiens (Human), UniProt Q16513)", "sequence (Q16513 whole entry)": "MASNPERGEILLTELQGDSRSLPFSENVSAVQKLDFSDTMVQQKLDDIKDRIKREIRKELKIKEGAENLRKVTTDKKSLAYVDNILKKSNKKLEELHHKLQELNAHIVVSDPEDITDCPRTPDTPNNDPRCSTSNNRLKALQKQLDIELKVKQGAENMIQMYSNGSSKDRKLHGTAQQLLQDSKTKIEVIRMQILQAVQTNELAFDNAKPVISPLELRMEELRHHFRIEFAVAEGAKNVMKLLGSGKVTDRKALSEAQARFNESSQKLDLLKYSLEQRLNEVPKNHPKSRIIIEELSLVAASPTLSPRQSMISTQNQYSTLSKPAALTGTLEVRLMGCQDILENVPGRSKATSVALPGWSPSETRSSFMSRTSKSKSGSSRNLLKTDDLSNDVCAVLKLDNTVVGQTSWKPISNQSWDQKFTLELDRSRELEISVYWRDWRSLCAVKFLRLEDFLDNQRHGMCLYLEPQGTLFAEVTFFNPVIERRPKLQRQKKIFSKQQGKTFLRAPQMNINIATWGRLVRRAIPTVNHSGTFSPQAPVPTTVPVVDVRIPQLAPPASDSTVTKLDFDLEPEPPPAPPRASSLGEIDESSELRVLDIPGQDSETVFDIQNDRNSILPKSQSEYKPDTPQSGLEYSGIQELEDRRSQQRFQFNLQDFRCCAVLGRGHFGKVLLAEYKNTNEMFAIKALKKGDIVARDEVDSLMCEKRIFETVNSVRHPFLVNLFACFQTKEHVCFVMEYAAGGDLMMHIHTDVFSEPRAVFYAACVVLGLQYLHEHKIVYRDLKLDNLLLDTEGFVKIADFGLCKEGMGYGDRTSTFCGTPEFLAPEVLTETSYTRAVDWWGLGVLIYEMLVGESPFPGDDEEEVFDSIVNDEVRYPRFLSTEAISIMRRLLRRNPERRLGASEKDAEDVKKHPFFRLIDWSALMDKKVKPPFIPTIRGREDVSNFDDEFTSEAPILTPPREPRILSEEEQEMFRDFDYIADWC", "test": "ICKP protein kinase panel screening", "assay_type": "biochemical", "details": "duplicate assays, read-out: mean % residual activity", "procedure": "as §1, §2, §3"}, "IRAK4": {"biological_target": "IRAK4 (Homo sapiens (Human), UniProt Q9NWZ3)", "sequence (Q9NWZ3 whole entry)": "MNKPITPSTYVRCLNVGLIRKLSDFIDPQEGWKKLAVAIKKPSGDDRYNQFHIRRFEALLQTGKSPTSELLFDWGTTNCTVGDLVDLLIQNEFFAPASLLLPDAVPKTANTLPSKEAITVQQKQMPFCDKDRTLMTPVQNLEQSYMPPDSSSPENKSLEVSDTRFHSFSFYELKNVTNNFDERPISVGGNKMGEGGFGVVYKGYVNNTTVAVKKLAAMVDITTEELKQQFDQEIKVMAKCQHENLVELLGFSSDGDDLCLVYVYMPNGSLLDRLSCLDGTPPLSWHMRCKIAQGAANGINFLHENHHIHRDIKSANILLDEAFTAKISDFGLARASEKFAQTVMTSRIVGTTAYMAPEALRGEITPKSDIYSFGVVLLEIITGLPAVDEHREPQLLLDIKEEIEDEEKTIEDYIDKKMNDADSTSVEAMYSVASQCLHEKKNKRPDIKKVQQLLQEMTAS", "test": "ICKP protein kinase panel screening", "assay_type": "biochemical", "details": "duplicate assays, read-out: mean % residual activity", "procedure": "as §1, §2, §3"}, "PKA": {"biological_target": "PKA (Homo sapiens (Human), UniProt P17612)", "test": "ICKP protein kinase panel screening", "assay_type": "biochemical", "details": "duplicate assays, read-out: mean % residual activity", "procedure": "as §1, §2, §3"}, "PIM1": {"biological_target": "PIM1 (Homo sapiens (Human), UniProt P11309)", "test": "ICKP protein kinase panel screening", "assay_type": "biochemical", "details": "duplicate assays, read-out: mean % residual activity", "procedure": "as §1, §2, §3"}, "BTK": {"biological_target": "BTK (Homo sapiens (Human), UniProt Q06187)", "sequence (Q06187 whole entry)": "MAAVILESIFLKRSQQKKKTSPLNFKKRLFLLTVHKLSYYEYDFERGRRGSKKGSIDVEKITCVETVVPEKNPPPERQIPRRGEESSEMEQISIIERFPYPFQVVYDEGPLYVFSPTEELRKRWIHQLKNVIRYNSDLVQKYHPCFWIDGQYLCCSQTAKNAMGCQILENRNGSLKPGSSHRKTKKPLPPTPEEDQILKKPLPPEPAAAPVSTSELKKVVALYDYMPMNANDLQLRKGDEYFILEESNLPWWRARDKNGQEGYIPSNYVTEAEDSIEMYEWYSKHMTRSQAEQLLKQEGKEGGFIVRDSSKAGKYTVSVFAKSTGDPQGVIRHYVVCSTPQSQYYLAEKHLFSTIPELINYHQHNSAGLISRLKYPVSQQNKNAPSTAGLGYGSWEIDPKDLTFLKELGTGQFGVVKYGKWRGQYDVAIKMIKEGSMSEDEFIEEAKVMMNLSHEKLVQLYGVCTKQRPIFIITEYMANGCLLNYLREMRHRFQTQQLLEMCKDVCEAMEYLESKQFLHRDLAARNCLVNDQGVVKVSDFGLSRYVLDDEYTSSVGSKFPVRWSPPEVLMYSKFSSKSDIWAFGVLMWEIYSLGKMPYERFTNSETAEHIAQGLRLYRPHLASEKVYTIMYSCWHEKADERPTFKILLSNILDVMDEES", "test": "ICKP protein kinase panel screening", "assay_type": "biochemical", "details": "duplicate assays, read-out: mean % residual activity", "procedure": "as §1, §2, §3"}, "DYRK1A": {"biological_target": "DYRK1A (Homo sapiens (Human), UniProt Q13627)", "test": "ICKP protein kinase panel screening", "assay_type": "biochemical", "details": "duplicate assays, read-out: mean % residual activity", "procedure": "as §1, §2, §3"}, "PLK1": {"biological_target": "PLK1 (Homo sapiens (Human), UniProt P53350)", "sequence (P53350 whole entry)": "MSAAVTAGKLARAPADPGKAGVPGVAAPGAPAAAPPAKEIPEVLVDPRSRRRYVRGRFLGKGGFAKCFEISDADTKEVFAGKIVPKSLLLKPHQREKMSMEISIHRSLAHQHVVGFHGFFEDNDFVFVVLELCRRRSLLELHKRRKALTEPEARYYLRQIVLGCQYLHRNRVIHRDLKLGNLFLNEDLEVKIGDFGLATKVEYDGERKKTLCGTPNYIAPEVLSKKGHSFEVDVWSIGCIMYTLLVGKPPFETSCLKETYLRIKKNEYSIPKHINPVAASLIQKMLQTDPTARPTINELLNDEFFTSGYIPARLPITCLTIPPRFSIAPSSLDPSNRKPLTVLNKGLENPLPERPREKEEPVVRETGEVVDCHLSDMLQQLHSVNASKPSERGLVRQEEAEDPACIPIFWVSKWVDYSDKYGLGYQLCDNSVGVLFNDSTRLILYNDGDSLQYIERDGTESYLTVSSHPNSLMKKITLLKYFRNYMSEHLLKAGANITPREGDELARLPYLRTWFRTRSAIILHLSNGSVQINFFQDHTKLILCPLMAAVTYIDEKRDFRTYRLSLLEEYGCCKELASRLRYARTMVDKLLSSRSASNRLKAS", "test": "ICKP protein kinase panel screening", "assay_type": "biochemical", "details": "duplicate assays, read-out: mean % residual activity", "procedure": "as §1, §2, §3"}, "PDK1": {"biological_target": "PDK1 (Homo sapiens (Human), UniProt O15530)", "sequence (O15530 whole entry)": "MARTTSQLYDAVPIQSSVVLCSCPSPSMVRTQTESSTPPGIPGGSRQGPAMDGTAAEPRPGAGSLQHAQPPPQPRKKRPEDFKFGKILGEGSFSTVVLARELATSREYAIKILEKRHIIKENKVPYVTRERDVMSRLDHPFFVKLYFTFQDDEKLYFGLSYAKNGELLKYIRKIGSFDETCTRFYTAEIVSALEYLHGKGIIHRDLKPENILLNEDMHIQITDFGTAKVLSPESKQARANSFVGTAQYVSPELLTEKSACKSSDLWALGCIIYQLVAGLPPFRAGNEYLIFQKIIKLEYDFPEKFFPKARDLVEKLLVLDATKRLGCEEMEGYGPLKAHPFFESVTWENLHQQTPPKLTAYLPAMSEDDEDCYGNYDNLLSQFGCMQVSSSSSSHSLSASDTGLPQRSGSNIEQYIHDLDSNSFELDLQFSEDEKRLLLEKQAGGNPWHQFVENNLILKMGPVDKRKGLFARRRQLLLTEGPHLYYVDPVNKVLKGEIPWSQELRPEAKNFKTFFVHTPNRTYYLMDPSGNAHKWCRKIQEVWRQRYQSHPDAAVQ", "test": "ICKP protein kinase panel screening", "assay_type": "biochemical", "details": "duplicate assays, read-out: mean % residual activity", "procedure": "as §1, §2, §3"}, "SmMLCK": {"biological_target": "SmMLCK (Homo sapiens (Human), UniProt Q15746)", "test": "ICKP protein kinase panel screening", "assay_type": "biochemical", "details": "duplicate assays, read-out: mean % residual activity", "procedure": "as §1, §2, §3"}, "JNK1": {"biological_target": "JNK1 (Homo sapiens (Human), UniProt P45983)", "sequence (P45983 whole entry)": "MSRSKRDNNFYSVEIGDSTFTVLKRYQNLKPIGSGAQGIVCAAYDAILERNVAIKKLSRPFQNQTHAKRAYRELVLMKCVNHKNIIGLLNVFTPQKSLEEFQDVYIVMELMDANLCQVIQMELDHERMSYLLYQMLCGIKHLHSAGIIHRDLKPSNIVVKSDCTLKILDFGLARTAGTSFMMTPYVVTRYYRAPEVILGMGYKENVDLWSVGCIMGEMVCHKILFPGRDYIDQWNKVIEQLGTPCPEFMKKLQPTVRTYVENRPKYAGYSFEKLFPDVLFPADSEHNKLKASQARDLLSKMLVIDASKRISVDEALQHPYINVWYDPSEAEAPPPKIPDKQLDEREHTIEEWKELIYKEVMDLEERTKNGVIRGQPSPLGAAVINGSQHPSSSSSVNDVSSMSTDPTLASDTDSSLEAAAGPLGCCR", "test": "ICKP protein kinase panel screening", "assay_type": "biochemical", "details": "duplicate assays, read-out: mean % residual activity", "procedure": "as §1\n(§5) FIG. 4 illustrates the studies carried out for compounds 67 and 69. Compounds 67 and 69 (FIG. 4B) were evaluated at the International Center For Kinase Profiling (ICKP, Dundee, Scotland) toward a panel of 13 protein kinases. The results (FIG. 4A) were expressed as the mean percentage of residual activity at 1 μM concentration (duplicate assays). Small disks: ≥90%, larger disk: 59%, for both compounds. The tree was generated using the Kinome Render software, and the illustration reproduced courtesy of Cell Signaling Technology, Inc. (www.cellsignal.com) Chartier et al PeerJ 2013, 1:e126.\nas §2, §3, §4"}, "p38a MAPK": {"biological_target": "p38a MAPK (Homo sapiens (Human), UniProt Q16539)", "sequence (Q16539 whole entry)": "as the sequence (Q16539 whole entry, canonical isoform) above", "test": "ICKP protein kinase panel screening", "assay_type": "biochemical", "details": "duplicate assays, read-out: mean % residual activity", "procedure": "as §1, §5, §2, §3, §4"}, "[1]": {"system": "panel of 13 protein kinases", "test": "ICKP screening, whole panel of 13 protein kinases", "assay_type": "biochemical, human", "details": "1 μM", "procedure": "as §5, §2, §4"}}, "note": "Entries after “also recorded” stand apart in the source; their conditions may differ. Where two headings read alike, the source gives them in different places."}
{"smiles": "O=c1[nH]cc(Nc2ccccc2)cc1-c1ccccc1Br", "note": "[Compound 69, 3-(2-Bromophenyl)-5-(phenylamino)pyridin-2(1H)-one]", "values": [{"measurement": "mean % residual activity", "setting": "CK2", "result": 94, "unit": "%"}, {"measurement": "mean % residual activity", "setting": "ROCK 2", "result": 105, "unit": "%"}, {"measurement": "mean % residual activity", "setting": "AMPK (hum)", "result": 95, "unit": "%"}, {"measurement": "IC50", "setting": "p38α MAPK; p38 alpha, read-out: Mean IC50", "result": 1.46, "unit": "µM"}, {"measurement": "IC50", "setting": "p38α MAPK; read-out: IC50 toward p38α MAPK", "result": "1.5 ± 0.7", "unit": "µM"}, {"measurement": "remaining activity at 10 µM", "setting": "TBK1", "result": 89, "unit": "%"}, {"measurement": "remaining activity at 10 µM", "setting": "EPH-A2", "result": 109, "unit": "%"}, {"measurement": "remaining activity at 10 µM", "setting": "PKCa", "result": 116, "unit": "%"}, {"measurement": "remaining activity at 10 µM", "setting": "PRK2", "result": 90, "unit": "%"}, {"measurement": "remaining activity at 10 µM", "setting": "IRAK4", "result": 98, "unit": "%"}, {"measurement": "remaining activity at 10 µM", "setting": "PKA", "result": 94, "unit": "%"}, {"measurement": "remaining activity at 10 µM", "setting": "PIM1", "result": 95, "unit": "%"}, {"measurement": "remaining activity at 10 µM", "setting": "BTK", "result": 94, "unit": "%"}, {"measurement": "remaining activity at 10 µM", "setting": "DYRK1A", "result": 66, "unit": "%"}, {"measurement": "remaining activity at 10 µM", "setting": "PLK1", "result": 113, "unit": "%"}, {"measurement": "remaining activity at 10 µM", "setting": "PDK1", "result": 103, "unit": "%"}, {"measurement": "remaining activity at 10 µM", "setting": "SmMLCK", "result": 100, "unit": "%"}, {"measurement": "remaining activity at 1 µM", "setting": "JNK1; 1 μM", "result": 115, "unit": "%"}, {"measurement": "remaining activity at 10 µM", "setting": "JNK1; 10 μM", "result": 102, "unit": "%"}, {"measurement": "remaining activity at 1 µM", "setting": "p38a MAPK; 1 μM", "result": 59, "unit": "%"}, {"measurement": "remaining activity at 10 µM", "setting": "p38a MAPK; 10 μM", "result": 19, "unit": "%"}, {"measurement": "mean percentage of residual activity, other kinases of the panel (small disks)", "setting": "[1]; all kinases except p38α MAPK", "result": "≥ 90", "unit": "%"}, {"measurement": "selectivity for p38α MAPK over the other protein kinases incl. p38 isoforms", "setting": "[1]; panel of 13 kinases", "result": "selective of p38α MAPK over the other protein kinases tested in this panel; also recorded: selective p38α MAPK inhibitor"}]}
